Consider one compound from publication PMC9975698, “Hyperoside alleviates toxicity of β-amyloid via endoplasmic reticulum-mitochondrial calcium signal transduction cascade in APP/PS1 double transgenic Alzheimer's disease mice” (Redox Biology, 2023).

As usually defined, the Kd is the concentration at which binding is half-saturated. Low values mean tighter binding, high ones weaker binding.

One data set addresses T1, Aβ aggregates (Homo sapiens, UniProt P05067).
T1 construct: purchased DGpeptites, Hangzhou, CHINA
The data set is described as follows: Biolayer interferometry (BLI) analysis. It is filed as binding. The procedure: 200 μL of solution containing 200 μg of the Aβ peptide was incubated at 37 °C for 5 days. EZ-Link NHS-LC-LC-Biotin (Thermo Scientific, USA) was dissolved in DMSO to a concentration of 10 mM. Aβ aggregates was biotinylated in a 1:0.5 M ratio of biotin reagent and incubated for 30 min at room temperature before being added to a 96-well plate (Greiner Bio-One, PN:655,209). Biotinylation was ascertained by loading the mixture onto super streptavidin (SSA) capacity tips (ForteìBIO, CA, USA) and detected by the FortéBIO Octet Red instrument. Additionally, SSA biosensors were pre-wetted with PBS for the recording of baselines. Successful biotinylated Aβ aggregates solution was collected and immobilized onto SSA tips overnight at 4 °C. HYP dissolved in DMSO was diluted to an appropriate concentration with PBS to a final 200 μL/well volume. Control wells were added with an equal amount of DMSO. All experiments consisted of repeated cycles of four significant steps: wash (300 s), baseline (120 s), association (120 s), and dissociation (120 s). The association, dissociation plot, and kinetic constants were analyzed with ForteìBIO data analysis software.
(BLI is a label-free optical method that tracks binding on a fibre tip over time.)

In a further data set the test system is HT22 cells. The data set is described as follows: Cell membrane permeability assay (intracellular HYP by LC-MS/MS). The settings on record: HYP 20–80 μM, 24 h. The data set is classed as in vitro ADME. As to the method:
HT22 cells were co-treated with Aβ aggregates and HYP (20–80 μM) for 24 h and washed with PBS for 3 times. The cell membrane was disrupted with 200 μL methanol for the collection and centrifugation of cellular content at 20,000 rpm for 10 min. The supernatant was then collected for LC-MS/MS analysis. HYP content was quantified using UHPLC-MS/MS system, which includes Agilent 1290 Infinity UHPLC, and Agilent 6460 Triple Quadrupole, equipped with an electrospray ionization interface used to generate positive ions for the determination of HYP. The compounds were analyzed by using the Agilent Zorbax Eclipse Plus C-18 column with a particle size of […] (flow rate: 0.35 mL/min). The mobile phase was set as follows: mobile phase A (0.1% formic acid in water) and mobile phase B (0.1% formic acid in ACN): 0–3 min, 10–30% B; 3–4 min, 70% B; 4–5 min, 30–70% B; 5–6 min, 70-10% B. The column and auto-sampler temperature were maintained at 30 °C and 4 °C, respectively. Data were analyzed by using Agilent MassHunter Workstation software B.01.03. The gas temperature was set at 300 °C with a flow rate of 11 L/min. Gases were set at 30 psi for the nebulizer, capillary, at 4000 V. For the HYP, the fragment was 170. The collision energy was set at 30; The mass transitions were as follows based on multiple reaction monitoring: m/z 464.38 → 299.9. For the Isorhamnetin (ISO), the fragment was 150. […]

The target in the next data set is T2, Aβ aggregate (Homo sapiens, UniProt P05067).
T2 construct: purchased DGpeptites, Hangzhou, CHINA
T2 sequence (P05067 672-713 limits assumed): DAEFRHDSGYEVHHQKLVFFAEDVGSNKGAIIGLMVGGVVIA
The data set is described as follows: LC/MS/MS Aβ binding propensity (reduction of HYP peak area in MRM). As to conditions: HYP 20–80 μM with 30 μM Aβ aggregate vs HYP alone. The text has this: Quercetin-3-O-β-D-galactopyranoside (Hyperoside, HYP), belongs to the class of flavonol glycosides and is derived from Crataegus pinnatifida Bunge Aβ is a well-known biomarker correlated to AD, therefore, the effect of HYP in targeting Aβ was investigated by molecular docking. […] HYP with Aβ molecular surface interaction and hydrogen bonding information were shown in supplementary 1A and 1B. […] The formation of Aβ aggregate and its particle size was verified by DLS (Fig. 1C). While the average particle size of the Aβ monomer is 365.62 nm, the particle size of Aβ aggregate is 1877 nm (Fig. 1D). The detection on the formation of Aβ aggregate was then performed by using the ThT fluorescence assay. ThT is a benzothiazole-like small molecule that specifically binds to amyloid fibrils. […] The direct binding affinity of HYP to Aβ aggregate was confirmed by the BLI assay. […] By using HYP alone (without Aβ aggregate incubation) as the control, all incubation mixtures were analyzed by using LC/MS/MS under the same chromatographic conditions according to our previous reported detection method. The quantitative reduction (%) in the peak area, representing the Aβ binding propensity of the tested compound [39] is used for statistical analysis.

A further data set concerns APP/PS1 mice. Briefly: Thioflavin S staining of Aβ plaques in brain. It is filed as in vivo. The settings on record: cortex and hippocampus, HYP 20/40/80 mg/kg nasal, 8 weeks. The procedure: All animal care and experimental procedures were performed in accordance with the “Institutional Animal Care and User Committee Guidelines” of the Macau University of Science and Technology. APP/PSEN1 (APP/PS1) mice (N000175) were purchased from the Nanjing Institute of Biomedical Sciences, Nanjing University, China, weighing 25 ± 5 g. The animals were housed in a temperature-controlled room with a 12 h light/dark cycle and given ad libitum food and water. Male mice were randomly divided into the following 6 experimental groups. (a) wild-type group (n = 6), (b) APP/PS1 group (n = 6), (c) HYP (20 mg/kg group) (n = 7), (d) HYP (40 mg/kg) group (n = 8), (e) HYP (80 mg/kg) group (n = 8) and (f) memantine (MEM) (10 mg/kg) positive control group (n = 8). HYP was dissolved in the solvent containing 10% DMSO, 40% PEG300 and 5% Tween-80 in PBS, and administrated via nasal injection for every 3 days with a volume of 0.5 μL/g of body weight for 8 consecutive weeks. Paraffin sections of the brain were washed three times with PBS after dewaxing and then stained with THS dissolved in 50% alcohol for 7 min, followed by 50% alcohol solution for washing. Sections were then air-dried and sealed with neutral gel for microscopic observation. Images were captured by API DeltaVision Live‐cell Imaging System (Applied Precision Inc., DC, USA).

T1 sequence (P05067 672-713 limits assumed): as above

On to `O=c1c(O[C@@H]2O[C@H](CO)[C@H](O)[C@H](O)[C@H]2O)c(-c2ccc(O)c(O)c2)oc2cc(O)cc(O)c12` [HYP, Quercetin-3-O-β-D-galactopyranoside], for which the “Kids” value on Aβ aggregates (Fig. 1G, dissociation rate constant) is 0.0343 s⁻¹. Further, on Aβ aggregates (HYP 6.25–200 μM, biotinylated Aβ aggregate), the Kd was determined as 14.5 µM. The “intracellular level of HYP” value with HT22 cells is reported as “increased upon the escalating concentration of HYP”. On Aβ aggregate, the “decrease in the peak area of HYP in MRM (Aβ binding propensity)” value is “dose-dependent binding affinity”. The “level of Aβ plaques (ThS)” value in the data set on APP/PS1 mice was “reduced the level of Aβ plaques in the cortex and hippocampus of APP/PS1 mice in a dose-dependent manner”.
